Key:
murine podocytes = assay: Primary HCS screen of chemical library, cell roundness Z score, PAN injury; format: cell-based; conditions: PAN 16 μg/ml, 48 hours; Z-score cutoff ≦−1.28
Method: Screening of chemical libraries, which include the MicroSource Spectrum collection (MicroSource Discovery Systems, Inc., Gaylorsville, C T, 2000 compounds) and Enzo kinase inhibitor array (Enzo Life Sciences, Farmingdale, N.Y., 80 compounds), Sigma, Millipore, Tocris and Cayman (41 compounds), was performed using multiwall plates. Podocytes cultured in multiwall plates were used in these assays. 100 nL of each compound, also in multiwall plates (at a stock concentration of 1 mM to 10 mM in DMSO), was added to each well of a podocyte containing multiwall plate using the Perkin Elmer Janus automated workstation with the help of a 96-pin or 384-pin pin tool (100 nL, PerkinElmer). The compounds were added in the absence or presence of podocyte damaging agent (such as PAN). The plates containing the compounds were subsequently placed in tissue culture incubators and cells were further cultured for 1-72 h at 37° C. A compound that decreased PAN damaged was identified by quantifying the changes in at least one of the following parameters: cell morphology, cell roundedness, F-actin intensity, number of focal adhesions, intensity or size of focal adhesions, length of actin fibers, size of actin fibers, percent damaged or percent healthy cells etc. In certain cases, hits were validated by acquiring a fresh batch of the compound from commercial sources and performing dose-response curves. Images from the primary screen were quantified for cell morphology parameter and were normalized by calculating z-score (z) for each test compound, to compensate for any plate-to-plate variability. (Wiggins, Kidney International, 2007) z was calculated for each of the test compounds using the formula: […]
where x is the raw measured value with each compound, μ is the mean of all measured raw values across a plate and a is the standard deviation of the measurements. A z-score of […], corresponding to 90% population under the curve, was used as a cutoff to identify primary hits in the assay.
To identify small molecules that protect podocytes from PAN injury, a chemical library of 2121 pharmacologically active compounds was screened. Podocytes were treated with compounds from the chemical library in the presence of PAN (16 μg/ml) at 37° C. for 48 hours. The assay plates also contained eight positive (PAN and MZR treatment) and eight negative (PAN treatment) control wells. Wells were imaged and analyzed, and the mean cell roundness per cell was calculated for each well. Mean cell roundness was normalized using plate-based positive and negative controls, and a Z score for the change in cell morphology on treatment with each compound (SD away from the plate mean) was calculated. The results from the screen are presented as a graph in FIG. 7A. Wells with nuclei counts. […] Primary hits (compounds that protected podocytes from PAN damage) were identified from the assay using a Z-score cutoff of ≦−1.28 corresponding to the 10% population on one side of the bell-shaped curve. […] Given that our assay is image based, the images from all initial hits were visually inspected manually, which eliminated 10 compounds as nonhits. […] The identified list of primary hit compounds included three Rho kinase inhibitors (Y27632, GSK 429286, and Thiazovivin) and a p38 kinase inhibitor (SB 203580). […] Next, to validate the hit compounds identified from our screen, selected primary hits were reanalyzed using independently obtained powder forms of the compounds.

human β1 integrin = target: T1, human β1 integrin (Homo sapiens, UniProt P05556); assay: Active β1 integrin (antibody 12G10) in PAN-treated human podocytes; format: cell-based; conditions: PAN treatment (FIG. 9D)
T1 construct: endogenous in cells; host or cells: conditionally immortalized human podocytes (Saleem et al. 2002)
T1 sequence (P05556 21-798): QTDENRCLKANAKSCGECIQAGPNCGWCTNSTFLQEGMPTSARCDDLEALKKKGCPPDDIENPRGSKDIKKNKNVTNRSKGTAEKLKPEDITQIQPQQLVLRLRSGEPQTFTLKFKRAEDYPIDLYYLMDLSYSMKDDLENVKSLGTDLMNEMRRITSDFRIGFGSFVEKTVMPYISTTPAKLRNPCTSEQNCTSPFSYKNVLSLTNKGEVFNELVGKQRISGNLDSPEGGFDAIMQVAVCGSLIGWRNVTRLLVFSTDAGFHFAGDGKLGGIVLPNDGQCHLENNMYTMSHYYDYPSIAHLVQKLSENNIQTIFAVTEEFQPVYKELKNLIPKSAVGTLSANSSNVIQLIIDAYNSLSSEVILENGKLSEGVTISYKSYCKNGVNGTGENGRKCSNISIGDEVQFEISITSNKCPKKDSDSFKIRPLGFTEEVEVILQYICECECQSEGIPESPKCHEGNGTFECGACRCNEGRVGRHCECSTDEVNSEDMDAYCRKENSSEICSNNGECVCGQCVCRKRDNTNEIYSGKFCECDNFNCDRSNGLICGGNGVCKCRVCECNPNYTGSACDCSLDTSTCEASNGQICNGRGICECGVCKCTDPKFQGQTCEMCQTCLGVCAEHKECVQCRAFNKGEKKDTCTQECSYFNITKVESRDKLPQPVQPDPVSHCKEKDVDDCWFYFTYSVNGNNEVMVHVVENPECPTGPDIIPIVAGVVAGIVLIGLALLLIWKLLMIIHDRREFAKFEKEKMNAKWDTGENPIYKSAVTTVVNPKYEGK
T1 sequence (P26006 33-1051 partner): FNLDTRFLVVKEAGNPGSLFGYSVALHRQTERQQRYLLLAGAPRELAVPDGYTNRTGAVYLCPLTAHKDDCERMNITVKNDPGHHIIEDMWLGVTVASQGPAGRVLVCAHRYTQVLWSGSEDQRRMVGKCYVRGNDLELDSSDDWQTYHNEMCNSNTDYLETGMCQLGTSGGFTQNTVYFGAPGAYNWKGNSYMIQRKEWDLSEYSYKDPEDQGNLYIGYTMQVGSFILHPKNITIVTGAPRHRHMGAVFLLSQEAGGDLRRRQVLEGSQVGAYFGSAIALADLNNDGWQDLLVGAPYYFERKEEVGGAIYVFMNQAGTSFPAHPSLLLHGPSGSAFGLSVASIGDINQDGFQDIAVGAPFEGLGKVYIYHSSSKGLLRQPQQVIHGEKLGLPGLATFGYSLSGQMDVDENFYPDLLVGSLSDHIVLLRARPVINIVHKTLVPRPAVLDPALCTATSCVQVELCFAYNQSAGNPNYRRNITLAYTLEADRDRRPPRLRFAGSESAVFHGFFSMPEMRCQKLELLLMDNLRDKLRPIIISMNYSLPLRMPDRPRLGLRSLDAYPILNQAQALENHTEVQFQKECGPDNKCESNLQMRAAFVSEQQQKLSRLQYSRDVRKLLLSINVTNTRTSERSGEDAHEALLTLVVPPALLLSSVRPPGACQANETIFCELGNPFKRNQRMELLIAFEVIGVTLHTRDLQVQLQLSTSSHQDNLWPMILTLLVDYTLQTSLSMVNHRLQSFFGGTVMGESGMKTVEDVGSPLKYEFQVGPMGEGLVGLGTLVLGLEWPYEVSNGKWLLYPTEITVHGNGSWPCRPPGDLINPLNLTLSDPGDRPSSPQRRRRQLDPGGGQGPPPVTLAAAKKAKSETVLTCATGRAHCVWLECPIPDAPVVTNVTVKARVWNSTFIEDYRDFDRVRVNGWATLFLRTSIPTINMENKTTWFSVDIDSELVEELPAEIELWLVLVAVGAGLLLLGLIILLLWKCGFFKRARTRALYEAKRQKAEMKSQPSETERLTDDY
From the text: FIG. 9A-9E. An An β1-integrin agonist pyrintegrin (pyr) protects podocytes from damage. (A) The published chemical structure of pyr. (Xu et al. PNAS, 2010.) (B-D) Pyr protects podocytes from PAN-induced loss of F-actin fibers and focal adhesions and enhances active β1-integrin levels. (B) Graphs showing the effect of pyr on the number of F-actin fibers per cell and the number of vinculin spots per cell under each treatment condition. Data shown are means 6 SEMs per cell from three replicate wells (n=500-1000 cells per well). **P, 0.01; ***P, 0.001; ****P, 0.001. (C) Representative fluorescence images of murine podocytes after various treatments and after staining with phalloidin and antiactive β1 antibody. […] (D) Representative fluorescence images of human podocytes after various treatments as shown. […] Representative images (left panel) and a bar graph (right panel) showing confocal microscopy-based quantitation of the number of migrating podocytes in a scratch wound-healing assay Lines represent the wound margins at the beginning of the experiment (0 hours). […]
Integrin-α3β1 is highly expressed in podocytes and primarily binds to the GBM-expressed ligand laminin, thereby mediating stable adhesion of podocytes to the GBM. […] Given that pyrintegrin affects integrin-β1, (Xu et al., PNAS, 2010.) we quantified the level of β1 in treated cells. […]

Question: `O=S(=O)(NCC1CC1)c1ccc(Nc2nccc(N3CCCc4cc(O)ccc43)n2)cc1` [Pyrintegrin] was tested. Which “primary hit (protects podocytes from PAN damage)” value (murine podocytes) did it give?
Answer: The value was “top primary hit”.

Question: And the “level of active β1 integrin in human podocytes (antibody 12G10)” value (human β1 integrin)?
Answer: The value was “rescued”.

Source: US20170269060A1, “Assays and Compounds to Treat Kidney Diseases” (Rush University Medical Center, priority 2014, published 2017)
